Assay results taken from US20030027722A1, “Influencing the activity of plant growth regulators” (priority 1998, published 2003).

Assays:
apple stalk slices = assay: rooting regeneration on apple stalk slices with elicitors; assay type: cell-based
Method: The effect of the elicitors on rooting regeneration on apple stalk slices was studied. The stalk slices were incubated on medium with elicitors in combination with a sub-optimal auxin concentration (1 μM indolebutyric acid or 1 μM indoleacetic acid) which were added for 1 or 3 days to the plant tissue for testing. The increase was measured in the number of regenerated roots compared to the auxin control.

tobacco = assay: cell division in tobacco; assay type: cell-based; details: elicitor 10^−10 M
Method: (§1) The elicitor uridine was tested on shoot regeneration in saintpaulia, lateral root formation in pea, cell division in tobacco and root induction in larkspur and apple.

saintpaulia = assay: shoot regeneration in saintpaulia; assay type: cell-based; details: elicitor 10^−10 M
Method: as §1

larkspur = assay: root induction in larkspur; assay type: in vivo; details: root formation larkspur, elicitor 10^−10 M
Method: as §1

pea = assay: lateral root formation in pea; assay type: in vivo; details: elicitor 10^−8 to 10^−16 M
Method: as §1

Brassica napens = assay: microspore embryogenesis; assay type: cell-based; details: in combination with colchicine
carnation = assay: rooting powder comparison, rooting and development of scions, carnation; assay type: in vivo; set-up: key: 1: The compounds with the best relative overall effect on rooting and development were placed in category I; categories which ranged from 1 to 6
Excerpt: (§2) d) In Table 2 standard indol butyric acid (IBA), which is the active component in most currently used rooting powders, is compared with indol hexanolic acid (IHA) and two BSA adducts, both—coupled, namely IBA and indole acetic acid (BSA-N-IAA). The effect on rooting and the plant development (stem growth, outgrowth of new shoots, synchronicity of growth of a population of plants) were inter alia factors determining the place in the categories which ranged from 1 to 6. The compounds with the best relative overall effect on rooting and development were placed in category I. Rooting and subsequent development of scions for different types of herbaceous and woody plants differs largely for those types of plants. A rose cultivar, “enermus stur cinq”, was used as an example of a recalcitrant woody plant. The chrysanthemum species “regan” is an example of an easy to root herbaceous plant.

tissue explants of rose = assay: shoot formation on tissue explants of rose; assay type: cell-based
Method: It was also observed that tissue explants of rose when treated with IBA (normal addition) or IHA, respectively, formed about 50 times more shoots (2 shoots versus 100 per 20 tissue explants) in the latter case.
In the studies for new applications of PGRs and/or elicitors, which were performed within the framework of the present invention, several new and unexpected observations were made. […] Furthermore, the inventors established that elicitors do cause a statistically significant growth retardation of all tissues, as can be illustrated for rose shoots. This effect was enhanced by PGR(s), in casu antigibberelins, i.e. paclobutrasol. […] Finally the observation was made that when tissue explants of rose were treated with respectively IBA (normal addition) or IHA, in the last case about 50 times more shoots were formed (2 shoots versus 100 per 20 tissue explants).

apple and rose = assay: root induction in apple and rose; assay type: in vivo
Excerpt: It is also possible to offer a hormone precursor, which is converted into an active hormone by metabolic processes. Indole-3-hexanoic acid (I-H-A) is converted by two beta-oxidation steps (the enzymes therefor are present in the plant) into the auxin indole-3-acetic acid (I-A-A). I-H-A is thus a special form of a slow-release source.

rose = assay: rooting powder comparison, rooting and development of scions, rose; assay type: in vivo; set-up: key: 1: The compounds with the best relative overall effect on rooting and development were placed in category I; categories which ranged from 1 to 6
Excerpt: as §2

chrysanthemum = assay: rooting powder comparison, rooting and development of scions, chrysanthemum; assay type: in vivo; set-up: key: 1: The compounds with the best relative overall effect on rooting and development were placed in category I; categories which ranged from 1 to 6
Excerpt: as §2

[1] = system: rose, chrysanthemum, carnation; assay: rooting powder comparison, average over species; assay type: in vivo
Excerpt: as §2

For `O=c1ccn([C@@H]2O[C@H](CO)[C@@H](O)[C@H]2O)c(=O)[nH]1` [uridine], the “increased regeneration in relation to control (auxin alone)” value (from here on “increased regeneration in relation”) (apple stalk slices; elicitor 10^−10 M, apple stalk slices) was 75%, the “increased regeneration in relation” value (tobacco) was 75% and the “increased regeneration in relation” value (saintpaulia) was 100%. The “increased regeneration in relation” value (larkspur) was 50% and the “increased regeneration in relation” value (pea) was 100%.
In the case of `CCCCCCCCC(=O)O` [nonanoic acid], the “increased regeneration in relation” value (apple stalk slices; elicitor 0.1-1 μM, roots, apple, 1 μM indolebutyric or indoleacetic acid, 1 or 3 days) is reported as 300% and the “increase in microspore embryogenesis” value (Brassica napens) is reported as 125%.
In the case of `O=C(O)CCCCCc1c[nH]c2ccccc12` [IHA, Indole-3-hexanoic acid], the “category of relative overall effect on rooting and plant development” value (shortened to “category of relative overall effect”) (carnation; carnation m. brilj.) is reported as 1, the “category of relative overall effect” value (carnation; carnation tempo) is reported as 2 and the shoots formed (tissue explants of rose) is reported as 100 shoots per 20 tissue explants. The “times more shoots than with IBA” value (tissue explants of rose) was “about 50”, the “activity in root induction relative to I-A-A” value (apple and rose) was “thirty times more active than I-A-A” and the “category of relative overall effect” value (rose; rose enermus stur cinq (recalcitrant woody plant)) was 1. For the same compound, the “category of relative overall effect” value (rose; rose n. brier) was 1, the “category of relative overall effect” value (chrysanthemum; chrys. regan (easy to root herbaceous plant)) was 2 and the “category of relative overall effect” value (chrysanthemum; chrys. snowdon) was 1. For the same compound, the average category ([1]; average over the species tested) was 1.33 and the “overall assessment of rooting powders from Table 2” value ([1]; in vivo) was “very generally applicable and very effective”.
